Experimental data reported in article PMC5121239, “Muscle-Type Nicotinic Receptor Modulation by 2,6-Dimethylaniline, a Molecule Resembling the Hydrophobic Moiety of Lidocaine” (Frontiers in Molecular Neuroscience, 2016).

Columns and labels:
[1] = target: T1, muscle-type nicotinic acetylcholine receptor (nAChR) (Torpedo marmorata, UniProt P02711+Q6S3H8+Q6S3H9+Q6S3I0); assay: two-electrode voltage clamp in Xenopus oocytes, agonist concentration-response; type: cell-based
T1 construct: gene CHRNA1; purified electroplax nAChR reconstituted in asolectin lipids and microtransplanted to Xenopus oocytes; with nAChR beta, gamma and delta subunits (alpha1, alpha2, beta, gamma, delta heteropentamer)

[2] = target: T1, muscle-type nicotinic acetylcholine receptor (nAChR); assay: two-electrode voltage clamp in Xenopus oocytes, inhibition of current evoked by […] ACh; type: cell-based

T1 sequence (P02711 25-461): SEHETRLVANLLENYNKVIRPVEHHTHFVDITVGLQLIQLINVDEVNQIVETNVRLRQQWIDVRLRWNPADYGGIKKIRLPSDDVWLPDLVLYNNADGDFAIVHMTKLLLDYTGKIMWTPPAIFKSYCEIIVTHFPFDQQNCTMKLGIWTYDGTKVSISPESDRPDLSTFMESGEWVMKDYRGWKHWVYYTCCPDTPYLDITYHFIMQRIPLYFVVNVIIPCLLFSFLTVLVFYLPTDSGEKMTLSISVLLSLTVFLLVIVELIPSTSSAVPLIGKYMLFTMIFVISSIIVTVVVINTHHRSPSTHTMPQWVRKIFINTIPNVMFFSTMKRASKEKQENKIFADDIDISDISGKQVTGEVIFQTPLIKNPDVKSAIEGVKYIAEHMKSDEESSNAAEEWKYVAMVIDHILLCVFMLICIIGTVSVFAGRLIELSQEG
T1 sequence (Q6S3I0 25-493): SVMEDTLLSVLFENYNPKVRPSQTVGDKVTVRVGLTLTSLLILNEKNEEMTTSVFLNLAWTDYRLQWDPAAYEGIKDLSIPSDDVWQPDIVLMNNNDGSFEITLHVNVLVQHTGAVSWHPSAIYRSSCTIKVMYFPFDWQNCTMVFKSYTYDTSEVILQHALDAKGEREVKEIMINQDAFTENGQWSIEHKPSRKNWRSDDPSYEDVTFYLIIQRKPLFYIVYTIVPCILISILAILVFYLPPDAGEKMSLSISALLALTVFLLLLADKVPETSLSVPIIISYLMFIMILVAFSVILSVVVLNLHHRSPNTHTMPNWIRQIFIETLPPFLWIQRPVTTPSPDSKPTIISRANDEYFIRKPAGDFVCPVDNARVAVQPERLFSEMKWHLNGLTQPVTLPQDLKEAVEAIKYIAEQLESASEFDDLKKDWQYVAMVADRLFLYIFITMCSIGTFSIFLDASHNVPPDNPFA
T1 sequence (Q6S3H9 18-505): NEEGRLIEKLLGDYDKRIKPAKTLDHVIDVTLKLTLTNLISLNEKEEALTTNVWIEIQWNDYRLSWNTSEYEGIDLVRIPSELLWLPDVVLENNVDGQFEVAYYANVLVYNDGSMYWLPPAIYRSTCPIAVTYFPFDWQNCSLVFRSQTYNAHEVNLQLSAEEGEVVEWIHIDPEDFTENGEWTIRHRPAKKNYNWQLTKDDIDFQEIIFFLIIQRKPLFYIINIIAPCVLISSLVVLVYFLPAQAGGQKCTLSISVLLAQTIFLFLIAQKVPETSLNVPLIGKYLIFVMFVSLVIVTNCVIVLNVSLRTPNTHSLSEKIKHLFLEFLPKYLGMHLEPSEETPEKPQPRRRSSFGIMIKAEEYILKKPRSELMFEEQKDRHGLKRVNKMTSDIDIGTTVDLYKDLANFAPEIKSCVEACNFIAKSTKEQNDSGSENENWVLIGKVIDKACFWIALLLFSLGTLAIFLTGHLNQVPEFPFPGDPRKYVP
T1 sequence (Q6S3H8 22-522): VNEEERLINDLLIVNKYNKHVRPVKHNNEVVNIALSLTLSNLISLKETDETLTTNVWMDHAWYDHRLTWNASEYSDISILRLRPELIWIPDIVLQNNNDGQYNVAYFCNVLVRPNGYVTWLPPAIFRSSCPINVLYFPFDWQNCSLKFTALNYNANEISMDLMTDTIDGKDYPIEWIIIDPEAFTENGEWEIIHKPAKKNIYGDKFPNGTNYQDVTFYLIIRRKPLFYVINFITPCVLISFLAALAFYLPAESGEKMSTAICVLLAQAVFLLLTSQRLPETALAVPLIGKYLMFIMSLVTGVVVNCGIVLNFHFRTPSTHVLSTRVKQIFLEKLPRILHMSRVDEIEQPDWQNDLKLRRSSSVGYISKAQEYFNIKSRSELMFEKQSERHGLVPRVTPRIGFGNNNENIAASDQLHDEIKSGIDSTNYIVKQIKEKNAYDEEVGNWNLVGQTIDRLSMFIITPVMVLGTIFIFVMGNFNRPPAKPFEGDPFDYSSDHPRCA

Structure (SMILES) | EC50 [1] [µM] | IC50 [2] [µM]
CC(=O)OCC[N+](C)(C)C [ACh, acetylcholine] | 29 | –
Cc1cccc(C)c1N [DMA, 2,6-dimethylaniline] | – | 2100
